Source: patent US20180207228A1, “PEPTIDE COMBINATIONS AND USES THEREOF FOR TREATING GRASS ALLERGY” (ALK-Abelló A/S, priority 2015, published 2018)
Where no end group is shown, it is not given here.

Columns and labels:
Format in all cases: cell-based, human
[1] = tested on: allergen specific T cells; test: T cell proliferation assay (72 h) on donor derived T cell lines (TCL02/TCL03); settings: for Proliferation % donor coverage (TCL-02 DK1): T cell lines TCL-02 DK1, 30 donors, hit criteria SI>=2, CPM>=1000; for Proliferation strength (TCL-02 DK1): T cell lines TCL-02 DK1, strength of response (average relative magnitude)
Procedure, shortened: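 CD8-depleted PBMCs from grass-allergic donors stimulated with natural grass allergen mix (nPhl p 1 0.5 μg/ml) to raise T cell lines; restimulated with irradiated APCs, allergens or PHA-P (0.5 μg/ml) plus rIL-2. Proliferation to overlapping 20-mer and selected 15-mer grass peptides tested with TCL02 (day 24) or TCL03 (day 34).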

[2] = tested on: release of IL-5 upon T cell activation; test: Fluorospot assay, IL-5 release (DK1-TCL01, US1-TCL01); settings: head prints TCL-02 DK1; text: 25 TCL-01 DK1 lines
Procedure, shortened: (§1)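 Grass-allergic donors' CD8-depleted PBMCs were expanded 14 days with natural grass allergens plus IL-2 to give TCL01 lines. These were incubated 20 h at 37° C with single peptides or peptide mixes at 2 μg/ml, and spot-forming cells were counted. Hit: SI≥2, p≤0.05, Poisson ≤0.05, ≥20 SFC/10^6 cells.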

[3] = tested on: release of IFN-γ upon T cell activation; test: Fluorospot assay, IFN-γ release (DK1-TCL01, US1-TCL01); settings: head prints TCL-02 DK1; 17 TCL-01 DK1 lines
Procedure, shortened: as §1

| Molecule | Proliferation % donor coverage (TCL-02 DK1) [1] | Proliferation strength (TCL-02 DK1) [1] | IL-5-Fluorospotr % donor coverage (TCL-02 DK1) [2] | IFN-gamma % donor coverage (TCL-02 DK1) [3] |
| --- | --- | --- | --- | --- |
| AFGAMAKKGDEQKLRSAGEL-OH [compound 22] | 26.67% | 2.10 | 4.00% | 15.00% |
| GRGSGSSFEIKSTKPEASSG-OH [compound 2] | 26.67% | 3.10 | 12.00% | 4.00% |
| ITATYGDKWLDAKSTWYGKP-OH [compound 16] | 10.00% | 0.70 | 0.00% | 4.00% |
| EAAFNNAIKASTGGAYESYK-OH [compound 83] | 10.00% | 0.90 | 0.00% | 0.00% |
| KEDFLGSLVKEIPPRLLYAK-OH [compound 45] | 20.00% | 4.00 | 4.00% | 0.00% |
| TKGKVDPTDYFRNEQSIPPL-OH [compound 60] | 13.33% | 2.60 | 0.00% | 0.00% |
| WGAIWRIDTPDKLTGPFTVR-OH [compound 11] | 46.67% | 4.80 | 24.00% | 8.00% |
| RGAAPDDHGGASGYKDVDKP-OH [compound 92] | 3.33% | 0.60 | 0.00% | 0.00% |
| FAVVDLNKMRAVWVDGKART-OH [compound 47] | 40.00% | 6.20 | 0.00% | 8.00% |
| LSYRSLQPETFAVVDLNKMR-OH [compound 53] | 10.00% | 1.20 | 0.00% | 4.00% |
| RNEVVNDVSTYASGKVWGQK-OH [compound 57] | 16.67% | 2.00 | 4.00% | 4.00% |
| KDKWIELKESWGAIWRIDTP-OH [compound 10] | 60.00% | 9.80 | 24.00% | 4.00% |
| AIGDKPGPNITATYGSKWLE-OH [compound 89] | 6.67% | 1.10 | 0.00% | 0.00% |
| FRRVKSKYPEGTKVTFHVEK-OH [compound 23] | 20.00% | 1.60 | 4.00% | 0.00% |
| CC[C@H](C)[C@H](NC(=O)[C@H](CCCCN)NC(=O)[C@H](CCC(=O)O)NC(=O)[C@@H](NC(=O)[C@@H](N)CC(C)C)[C@@H](C)CC)C(=O)N[C@@H](CC(N)=O)C(=O)N[C@@H](C)C(=O)NCC(=O)N[C@@H](Cc1ccccc1)C(=O)N[C@@H](CCCCN)C(=O)N[C@@H](C)C(=O)N[C@@H](C)C(=O)N[C@H](C(=O)N[C@@H](C)C(=O)N[C@@H](C)C(=O)O)C(C)C [compound 123] | 53.33% | 7.90 | 12.50% | 0.00% |
| EWVAMTKGEGGVWTFDSEEP-OH [compound 27] | 13.33% | 2.30 | 8.00% | 4.00% |
